Source: PubChem BioAssay AID330 (DTP/NCI, 2004)
Several values for one entry are separate records, joined by “and”; a condition that tells them apart may be missing. Identical values can stand only once. Inconclusive results and toxic doses are left out. Rule for the calls: active = survival T/C of 150% or more; inactive = T/C below 125% in these data.

System: P388 leukemia ip, CD2F1 mice, survival T/C
Test: NCI In Vivo Anticancer Drug Screen. Data for tumor model P388 Leukemia (intraperitoneal) in CD2F1 (CDF1) mice
Settings: endpoint: median survival time, higher = longer survival
Summary of the method: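 Mice carrying the transplanted tumor received test compound or vehicle. Survival was recorded in each group, and the value is the treated-group measurement divided by that of the vehicle-treated control group.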

[1] = dose: 60.0 mg/kg/injection, schedule: Q01DX005 (ip), vehicle: saline with Tween-80
[2] = dose: 120.0 mg/kg/injection, schedule: Q01DX005 (ip), vehicle: saline with Tween-80
[3] = dose: 240.0 mg/kg/injection, schedule: Q01DX005 (ip), vehicle: saline with Tween-80
[4] = dose: 50.0 mg/kg/injection, schedule: Q01DX009 (ip), vehicle: saline
[5] = dose: 60.0 mg/kg/injection, schedule: Q01DX005 (ip), vehicle: Klucel (hydroxypropylcellulose) (HPC)
[6] = dose: 120.0 mg/kg/injection, schedule: Q01DX005 (ip), vehicle: Klucel (hydroxypropylcellulose) (HPC)
[7] = dose: 240.0 mg/kg/injection, schedule: Q01DX005 (ip), vehicle: Klucel (hydroxypropylcellulose) (HPC)
[8] = dose: 100.0 mg/kg/injection, schedule: Q04DX002 (ip), vehicle: saline with Tween-80
[9] = dose: 200.0 mg/kg/injection, schedule: Q04DX002 (ip), vehicle: saline with Tween-80
[10] = dose: 400.0 mg/kg/injection, schedule: Q04DX002 (ip), vehicle: saline with Tween-80
[11] = dose: 50.0 mg/kg/injection, schedule: Q01DX009 (ip), vehicle: saline with Tween-80
[12] = dose: 100.0 mg/kg/injection, schedule: Q01DX009 (ip), vehicle: saline with Tween-80
[13] = dose: 200.0 mg/kg/injection, schedule: Q01DX009 (ip), vehicle: saline with Tween-80
[14] = dose: 50.0 mg/kg/injection, schedule: Q01DX005 (ip), vehicle: saline with Tween-80
[15] = dose: 100.0 mg/kg/injection, schedule: Q01DX005 (ip), vehicle: saline with Tween-80
[16] = dose: 200.0 mg/kg/injection, schedule: Q01DX005 (ip), vehicle: saline with Tween-80
[17] = dose: 50.0 mg/kg/injection, schedule: Q01DX005 (ip), vehicle: Klucel (hydroxypropylcellulose) (HPC)

Measured: T/C

O=C1CSC(=S)N1c1ccc(Cl)c(C(F)(F)F)c1
inactive: dose: 50.0 mg/kg/injection, schedule: Q01DX009 (ip), vehicle: suspension in saline 108 % of control | dose: 100.0 mg/kg/injection, schedule: Q01DX009 (ip), vehicle: suspension in saline 101 % of control | dose: 200.0 mg/kg/injection, schedule: Q01DX009 (ip), vehicle: suspension in saline 104 % of control

N#CC1(C#N)CC1c1ccccc1 (configuration not stated)
inactive: [1] 105 % of control | [2] 96 % of control | [3] 96 % of control

CCOC(=O)/N=C1\SC2(CC(C)=C(C)CS2=O)C(O)=C1C(=O)OCC (configuration not stated)
inactive: [1] 101 % of control | [2] 100 % of control | [3] 101 % of control

CCn1c(=O)c2c(NC)snc2n(CC)c1=O
inactive: [4] 97 % of control | dose: 100.0 mg/kg/injection, schedule: Q01DX009 (ip), vehicle: saline 95 % of control | dose: 200.0 mg/kg/injection, schedule: Q01DX009 (ip), vehicle: saline 98 % of control

C[C@]12CC[C@H](O)CC1CC[C@@H]1C2CC[C@]2(C)NC(=O)CCC12 (some centres not stated)
inactive: dose: 100.0 mg/kg/injection, schedule: Q01DX001 (ip), vehicle: saline with Tween-80 108 % of control | dose: 200.0 mg/kg/injection, schedule: Q01DX001 (ip), vehicle: saline with Tween-80 108 % of control | dose: 400.0 mg/kg/injection, schedule: Q01DX001 (ip), vehicle: saline with Tween-80 120 % of control

CCn1cc(C(=O)O)c(=O)c2ccc(-c3cn(C)nc3C)nc21 (tested in a mixture with another compound)
inactive: dose: 50.0 mg/kg/injection, schedule: Q04DX002 (ip), vehicle: saline 99 % of control | dose: 100.0 mg/kg/injection, schedule: Q04DX002 (ip), vehicle: saline 99 % of control | dose: 200.0 mg/kg/injection, schedule: Q04DX002 (ip), vehicle: saline 98 % of control

CC(Oc1ccc(Oc2ccc(Cl)cc2)cc1)C(=O)O (configuration not stated)
inactive: dose: 50.0 mg/kg/injection, schedule: Q01DX009 (ip), vehicle: Klucel (hydroxypropylcellulose) (HPC) 102 % of control | dose: 100.0 mg/kg/injection, schedule: Q01DX009 (ip), vehicle: Klucel (hydroxypropylcellulose) (HPC) 90 % of control | dose: 200.0 mg/kg/injection, schedule: Q01DX009 (ip), vehicle: Klucel (hydroxypropylcellulose) (HPC) 89 % of control

O=C1c2ccncc2C(=O)c2c(O)ccc(O)c21
inactive: dose: 12.5 mg/kg/injection, schedule: Q01DX009 (ip), vehicle: distilled water + Tween-80 102 % of control | dose: 25.0 mg/kg/injection, schedule: Q01DX009 (ip), vehicle: distilled water + Tween-80 100 % of control | dose: 50.0 mg/kg/injection, schedule: Q01DX009 (ip), vehicle: distilled water + Tween-80 98 % of control | dose: 100.0 mg/kg/injection, schedule: Q01DX009 (ip), vehicle: distilled water + Tween-80 109 % of control

CN1C(=O)C(CC(N)=O)NC1=S (configuration not stated)
inactive: [5] 95 % of control | [6] 86 % of control | [7] 93 % of control

Cc1oc2c(C)c3oc(=O)cc(C)c3cc2c1CCl
inactive: dose: 12.5 mg/kg/injection, schedule: Q04DX002 (ip), vehicle: saline with Tween-80 114 % of control | dose: 25.0 mg/kg/injection, schedule: Q04DX002 (ip), vehicle: saline with Tween-80 123 % of control | dose: 400.0 mg/kg/injection, schedule: Q05DX002 (ip), vehicle: saline with Tween-80 98 % of control

COC(CCC1N=C1c1ccccc1)OC (configuration not stated)
inactive: [8] 105 % of control | [9] 102 % of control | [10] 102 % of control

O=c1[nH]cnc2nc(N3CCN(c4ccccc4)CC3)sc12
inactive: [1] 87 % of control | [2] 87 % of control | [3] 87 % of control

COc1ccc(/C=C(/C(=O)O)c2ccc(OC)cc2)cc1
inactive: dose: 100.0 mg/kg/injection, schedule: Q04DX003 (ip), vehicle: other 100 % of control | dose: 200.0 mg/kg/injection, schedule: Q04DX003 (ip), vehicle: other 95 % of control | dose: 400.0 mg/kg/injection, schedule: Q04DX003 (ip), vehicle: other 100 % of control

O=S(=O)(SC(S(=O)(=O)C12CC3CC(CC(C3)C1)C2)S(=O)(=O)C12CC3CC(CC(C3)C1)C2)C12CC3CC(CC(C3)C1)C2 (configuration not stated)
inactive: [11] 95 % of control | [12] 105 % of control | [13] 95 % of control

CCOC(=O)CC(=O)c1ccoc1
inactive: [14] 110 % of control | [15] 105 % of control | [16] 110 % of control

CC(Oc1cc(Cl)c(Cl)cc1Cl)C(=O)NC(Cc1ccccc1)C(=O)O (configuration not stated)
inactive: [14] 105 % of control | [15] 109 % of control | [16] 95 % of control

COc1ccc(C2OC(=O)C(=O)C2=O)cc1OC (configuration not stated)
inactive: [5] 100 % of control | [6] 107 % of control | [7] 105 % of control

CN(C)C1CC(N2c3ccccc3Sc3ccc(Cl)cc32)C1 (configuration not stated)
inactive: dose: 50.0 mg/kg/injection, schedule: Q04DX003 (ip), vehicle: Klucel (hydroxypropylcellulose) (HPC) 107 % of control | dose: 100.0 mg/kg/injection, schedule: Q04DX003 (ip), vehicle: Klucel (hydroxypropylcellulose) (HPC) 104 % of control | dose: 200.0 mg/kg/injection, schedule: Q04DX003 (ip), vehicle: Klucel (hydroxypropylcellulose) (HPC) 107 % of control

S=c1nc(N(c2ccccc2)c2ccccc2)[nH]s1
inactive: dose: 12.5 mg/kg/injection, schedule: Q01DX009 (ip), vehicle: saline with Tween-80 104 % of control | dose: 25.0 mg/kg/injection, schedule: Q01DX009 (ip), vehicle: saline with Tween-80 101 % of control | [11] 93 % of control

CC1=C(C(=O)Nc2ccccc2)C(c2ccc(Cl)cc2Cl)C(C(=O)Nc2ccccc2)=C(C)N1
inactive: [8] 99 % of control | [9] 101 % of control | [10] 92 % of control

Cc1noc(C)c1Br
inactive: [11] 97 % of control | [12] 102 % of control | [13] 102 % of control

O=C1c2ccccc2C=c2c1nc1c(O)ccc3cccc2c31
inactive: dose: 6.25 mg/kg/injection, schedule: Q01DX005 (ip), vehicle: Klucel (hydroxypropylcellulose) (HPC) 101 % of control | dose: 12.5 mg/kg/injection, schedule: Q01DX005 (ip), vehicle: Klucel (hydroxypropylcellulose) (HPC) 100 % of control | dose: 25.0 mg/kg/injection, schedule: Q01DX005 (ip), vehicle: Klucel (hydroxypropylcellulose) (HPC) 111 % of control | [17] 97 % of control

CCOC(=O)\C(C#N)=C/C(C)=C/C(C)=C/Nc1ccc([N+](=O)[O-])cc1[N+](=O)[O-]
inactive: [17] 111 % of control | dose: 100.0 mg/kg/injection, schedule: Q01DX005 (ip), vehicle: Klucel (hydroxypropylcellulose) (HPC) 110 % of control | dose: 200.0 mg/kg/injection, schedule: Q01DX005 (ip), vehicle: Klucel (hydroxypropylcellulose) (HPC) 114 % of control

C1=CC2CCC1C1CSCC21 (configuration not stated)
inactive: dose: 12.5 mg/kg/injection, schedule: Q01DX009 (ip), vehicle: saline 98 % of control | dose: 25.0 mg/kg/injection, schedule: Q01DX009 (ip), vehicle: saline 100 % of control | [4] 87 % of control and 92 % of control

O=C1CC(O)C2C(=O)c3c(c(Cl)c4ccccc4c3O)C(=O)C2C1 (configuration not stated)
inactive: [5] 94 % of control | [6] 94 % of control | [7] 93 % of control
